Measurements reported in patent publication US9403829B2, “Pharmaceutical compositions of 7-(6-(2-hydroxypropan-2-yl)pyridin-3-yl)-1-((trans)-4-methoxycyclohexyl)-3,4-dihydropyrazino [2,3-b]pyrazin-2(1H)-one, a solid form thereof and methods of their use” (Signal Pharmaceuticals, LLC, priority 2011, dated 2016).
Where two headings read alike, the source gives them in different places.

Columns and labels:
[1] = Phase 1 crossover pharmacokinetic study of tablet and capsule formulations, single oral dose; type: in vivo, human; settings: male, human, plasma, oral; for AUC(0-t): read-out: AUC0-24
Protocol: Certain formulations provided herein were evaluated in a Phase 1, open-label, randomized, crossover study.
On Day 1 of Period 1, following an overnight fast of at least 8 hours, subjects were randomized to one of the following 3 sequences to receive Treatment A, B or C (Table 30).
In Treatment A, one 20-mg reference Compound A API-in-capsule was administered orally after at least 8 hour fast with 240 mL of non-carbonated, room temperature water. In Treatment B, one 20-mg tablet of Compound A (Tablet Formulation XIII) was administered under fasted conditions. In Treatment C, four 5-mg tablets of Compound A (Tablet Formulation XIV) were administered under fasted conditions. The 20-mg tablet and four 5-mg tablets were administered orally after at least 8 hour fast with 240 mL of non-carbonated, room temperature water.
For each period, serial blood samples were collected before dosing (zero hour) and at 0.5, 1, 1.5, 2, 2.5, 3, 4, 6, 8, 12, 24, 48, 72, and 96 hours after dosing. Plasma concentrations of Compound A were determined for determining PK parameters, such as […], AUC0-∞, Cmax, Tmax, t1/2, CL/F, and Vz/F for Compound A. Plasma PK parameters were calculated using non compartmental methods. Analyses of variance (ANOVA) were performed on the natural log-transformed AUC0-t, AUC0-∞, and Cmax for Compound A. The geometric mean ratios (test/reference) and their 90% confidence intervals were also calculated. For Tmax, non parametric analysis was used to produce median differences.

[2] = Pharmacokinetics of the metabolite produced in vivo after administration of 7.5-60 mg Compound A; settings: human; for AUC(0-t): read-out: AUC0-24; for concentration at 15 day: read-out: Ctrough
Protocol: In certain embodiments, the pharmacokinetic parameters in connection with the metabolite of Compound A produced via administration of 7.5 mg, 15 mg, 30 mg, 45 mg and 60 mg of Compound A are obtained using the protocol set forth in Section 5.2.1 (paragraphs [00497]-[00520]) of U.S. provisional application No. 61/653,436, filed May 31, 2012, which is incorporated by reference herein in its entirety.
In certain embodiments, the pharmacokinetic parameters set forth herein are mean values obtained from multiple subjects.
In certain embodiments, the metabolite of Compound A is the O-desmethyl metabolite.

[3] = upon administration of about 20 mg of Compound A (protocol of Section 6.5.1)
[4] = Treatment A: one 20-mg Compound A API-in-capsule, fasted, n = 18, geometric mean
[5] = 7.5 mg, day 1 of administration of about 7.5 mg of Compound A
[6] = 7.5 mg, on day (number not given) of once a day administration of about 7.5 mg of Compound A
[7] = 15 mg, day 1 of administration of about 15 mg of Compound A
[8] = 15 mg, on day (number not given) of once a day administration of about 15 mg of Compound A
[9] = 30 mg, day 1 of administration of about 30 mg of Compound A
[10] = 30 mg, day 15 of once a day administration of about 30 mg of Compound A
[11] = 45 mg, day 1 of administration of about 45 mg of Compound A
[12] = 45 mg, day 15 of once a day administration of about 45 mg of Compound A
[13] = 60 mg, day 1 of administration of about 60 mg of Compound A
[14] = 60 mg, day 15 of once a day administration of about 60 mg of Compound A

A Cmax [1, 3] of 503 ng/mL, a Tmax [1, 3] of 3 h and a half-life [1, 3] of 14.3 h were found for `CC(C)(O)c1ccc(-c2cnc3c(n2)N([C@H]2CC[C@H](O)CC2)C(=O)CN3)cn1` [O-Desmethyl metabolite, 1-((1r,4r)-4-hydroxycyclohexyl)-7-(6-(2-hydroxypropan-2-yl)pyridin-3-yl)-3,4-dihydropyrazino[2,3-b]pyrazin-2(1H)-one] in this work. It also gave an AUC(0-t) [1, 3] of 7480 ng·h/mL, an AUC(0-inf) ([1]; upon administration of about 20 mg of Compound A (protocol of Section 6.5.1), read-out: AUC∞) of 11900 ng·h/mL and a half-life [1, 4] of 14.3 h. It also gave a Tmax ([1]; Treatment A: one 20-mg Compound A API-in-capsule, fasted, healthy adult males, n = 18, median) of 3 h, a Cmax [1, 4] of 503 ng/mL and an AUC(0-t) [1, 4] of 7480 ng·h/mL. It also gave an AUC(0-inf) ([1]; Treatment A: one 20-mg Compound A API-in-capsule, fasted, n = 18, geometric mean, read-out: AUC0-∞) of 11900 ng·h/mL, an AUC(0-inf) [2, 5] of 7950 ng·h/mL and a Cmax [2, 5] of 143 ng/mL. For the same compound, the Tmax [2, 5] was 8 h, the half-life [2, 5] was 35 h and the AUC(0-t) [2, 5] was 2740 ng·h/mL. It also gave an AUC(0-inf) [2, 6] of 45600 ng·h/mL, a Cmax [2, 6] of 363 ng/mL and a Tmax [2, 6] of 2 h. For the same compound, the AUC(0-t) [2, 6] was 6400 ng·h/mL, the AUC(0-inf) [2, 7] was 5820 ng·h/mL and the Cmax [2, 7] was 309 ng/mL. The Tmax [2, 7] was 2 h, the half-life [2, 7] was 12 h and the AUC(0-t) [2, 7] was 3830 ng·h/mL. For the same compound, the AUC(0-inf) [2, 8] was 9750 ng·h/mL, the Cmax [2, 8] was 458 ng/mL and the Tmax [2, 8] was 3 h. For the same compound, the AUC(0-t) [2, 8] was 5680 ng·h/mL, the AUC(0-inf) [2, 9] was 27700 ng·h/mL and the Cmax [2, 9] was 776 ng/mL. The Tmax [2, 9] was 7 h, the half-life [2, 9] was 21 h and the AUC(0-t) [2, 9] was 13300 ng·h/mL. For the same compound, the AUC(0-inf) [2, 10] was 118000 ng·h/mL, the Cmax [2, 10] was 1770 ng/mL and the Tmax [2, 10] was 2 h. It also gave an AUC(0-t) [2, 10] of 29400 ng·h/mL, an AUC(0-inf) [2, 11] of 27300 ng·h/mL and a Cmax [2, 11] of 1150 ng/mL. For the same compound, the Tmax [2, 11] was 3 h, the half-life [2, 11] was 17 h and the AUC(0-t) [2, 11] was 15900 ng·h/mL. The AUC(0-inf) [2, 12] was 77700 ng·h/mL, the Cmax [2, 12] was 2240 ng/mL and the Tmax [2, 12] was 2 h. It also gave an AUC(0-t) [2, 12] of 32700 ng·h/mL, an AUC(0-inf) [2, 13] of 37500 ng·h/mL and a Cmax [2, 13] of 1440 ng/mL. It also gave a Tmax [2, 13] of 4 to 6 h, a half-life [2, 13] of 16 h and an AUC(0-t) [2, 13] of 21500 ng·h/mL. For the same compound, the AUC(0-inf) [2, 14] was 138000 ng·h/mL, the Cmax [2, 14] was 2520 ng/mL and the Tmax [2, 14] was 3 h. For the same compound, the AUC(0-t) [2, 14] was 46900 ng·h/mL, the concentration at 15 day ([2]; day 15 of once a day administration of about 30 mg of Compound A) was 1100 ng/mL and the concentration at 15 day ([2]; day 15 of once a day administration of about 45 mg of Compound A) was 1180 ng/mL. It also gave a concentration at 15 day ([2]; day 15 of once a day administration of about 60 mg of Compound A) of 1470 ng/mL.
